# From patent publication US20080063679A1, “NANOCOMPOSITES WITH RESIDUAL BIOCIDAL AND BIOSTATIC PROPERTIES” (Quartek Corporation, priority 2006, published 2008)
# Legend:
# [1] = Minimum inhibitory concentration (MIC), comparison of biocidal nanocomposites and existing decontaminants; assay type: cell-based; conditions: Table 1
# Text: (§1) Current antimicrobials have a short life with no residual effect. They lose there effectiveness in high protein environment. Certain bacteria developed resistance. They are toxic or cause irritations. Some are highly corrosive.
# [2] = system: G+ & G−; assay: Bactericidal effectiveness, comparison table; assay type: cell-based; conditions: Table 1
# Text: as §1
# [3] = system: spores; assay: Sporicidal effectiveness, comparison table; assay type: cell-based; conditions: Table 1
# Text: as §1
# [4] = system: fungi; assay: Fungicidal effectiveness, comparison table; assay type: cell-based; conditions: Table 1
# Text: as §1
# [5] = Text: as §1
smiles,measurement,setting,value
OCl [Hypochlorite],Minimum inhibitory concentration (MIC),[1],150 µg/mL
same,Effectiveness Bactericidal (G+ & G−),[2],very good
same,Effectiveness Sporicidal,[3],no/fair
same,Effectiveness Fungicidal,[4],good
same,Non-corrosive,[5],no
same,Contact time,[5]; Table 1,1 to 30 min
same,Effective in hard water,[5]; Table 1,poor
same,Effective in organics,[5]; Table 1,poor
same,Effective in soap,[5]; Table 1,yes
same,Residual activity,[5]; Table 1,poor
